In one series the test system is TRPV4. As to conditions: literature (Alvarez, Circ Res 2006); cited from earlier work.
In series [1] the test system is PAEC. As to the kind of experiment: Mitochondrial membrane potential (TMRM) in PAEC. It is filed as cell-based, ovine. As to conditions: 4αPDD 10 μM, 3 h. The protocol: (§1) Primary cultures of ovine pulmonary arterial endothelial cells (PAEC) were isolated as described previously (L. K. Kelly, Am J Physiol Lung Cell Mol Physiol, 286(5), L984-91 (2004)). Briefly, cells were maintained in Dulbecco's modified Eagle medium (DMEM) supplemented with 10% fetal calf serum (Hyclone, Logan, UT), antibiotics/antimycotic (500 IU Penicillin, 500 μg/ml Streptomycin, 1.25 μg/ml Amphotericin B; MediaTech, Herndon, VA) at 37° C. in a humidified atmosphere with 5% CO2 and 95% air. Cells were used for experiments between passages 9-14, seeded at ˜50% confluence, and utilized when fully confluent.
Mitochondrial membrane potential was determined using TMRM (tetramethylrhodamine methyl ester perchlorate, Molecular Probes, Eugene, OR). Briefly, after each experiment, cells were washed with fresh media, incubated in media containing TMRM (50 nM), for 30 min at 37° C. in dark conditions, then subjected to fluorescence microscopy using an excitation of 548 nm and an emission at 575 nm. An Olympus IX51 microscope equipped with a CCD camera (Hamamatsu Photonics) was used for acquisition of fluorescent images and the average fluorescent intensities were quantified using ImagePro Plus version 5.0 imaging software (Media Cybernetics).

In series [2] the test system is PAEC. As to the kind of experiment: Cellular peroxynitrite levels (DHR 123 oxidation) in PAEC. It is filed as cell-based, ovine. As to conditions: 4αPDD. The protocol: as §1
The level of cell peroxynitrite was determined by the oxidation of dihydrorhodamine (DHR) 123 (EMD Millipore, Billerica, MA) to rhodamine 123, as previously described (S. Aggarwal, J Cell Physiol, 226(12), 3104-13 (2011)). Briefly, cultured PAEC were treated with or without TGF-β1 (5 ng/ml, 8 h) or GW9662 (5 μM, 24 h). The cells were collected and the cell pellet was then treated with PEG-Catalase (100 U, 30 min) to reduce H2O2 dependent DHR 123 oxidation. DHR 123 (5 μM, 30 min) was added to the cell pellet in phenol red-free media and the fluorescence of rhodamine 123 measured using a Fluoroskan Ascent Microplate Fluorometer with excitation at 485 nm and emission at 545 nm. Fluorescent values were normalized to the protein levels in each sample.

For series [3], the system named is PAEC. As to the kind of experiment: Mitochondrial ROS levels (MitoSOX Red) in PAEC. It is filed as cell-based, ovine. The following applies: 4αPDD 10 μM, 3 h. How it is done:
as §1
MitoSOX™ Red (Molecular Probes), a fluorogenic dye for selective detection of ROS levels in the mitochondria of live cells was used. Briefly, cells were washed with fresh media, and then incubated in media containing MitoSOX Red (2 μM), for 30 min at 37° C. in dark conditions then subjected to fluorescence microscopy at an excitation of 510 nm and an emission at 580 nm. An Olympus IX51 microscope equipped with a CCD camera (Hamamatsu Photonics) was used for acquisition of fluorescent images. The average fluorescent intensities (to correct for differences in cell number) were quantified using ImagePro Plus version 5.0 imaging software (Media Cybernetics, Rockville, MD).

Another series concerns the target purified PKCα (Homo sapiens, UniProt P17252). As to the kind of experiment: In vitro peptide binding assay (biotinylated d-peptide, streptavidin capture, blot). As to conditions: biotinylated d-peptide 0 to 5 μg, PKC lipid activator, 1 hour room temperature. The protocol:
(§2) Biotinylation of the decoy peptide (d-peptide) was performed using the Thermo Scientific EZ-Link Sulfo-NHS-LC-Biotinylation Kit. Briefly, Sulfo-NHS-LC-Biotin was mixed with d-peptide and the reaction mix was incubated at room temperature for 30 minutes. Different concentrations of the biotinylated d-peptide (0 to 5 μg) mixed with either purified eNOS protein or PKCα protein in a reaction mix containing PKC lipid activator were incubated at room temperature for 1 hour. Protein bound to the biotinylated d-peptide was captured using Thermo Scientific streptavidin agarose column and run on a 10% SDS-PAGE gel under reducing condition. The resulting blots were probed with antibodies to eNOS and PKCα protein respectively. Reactive bands were visualized using chemiluminescence on the LI-COR Odyssey image station.

The target of another series is T1, purified eNOS protein (Homo sapiens, UniProt P29474).
T1 sequence (P29474 1-1203): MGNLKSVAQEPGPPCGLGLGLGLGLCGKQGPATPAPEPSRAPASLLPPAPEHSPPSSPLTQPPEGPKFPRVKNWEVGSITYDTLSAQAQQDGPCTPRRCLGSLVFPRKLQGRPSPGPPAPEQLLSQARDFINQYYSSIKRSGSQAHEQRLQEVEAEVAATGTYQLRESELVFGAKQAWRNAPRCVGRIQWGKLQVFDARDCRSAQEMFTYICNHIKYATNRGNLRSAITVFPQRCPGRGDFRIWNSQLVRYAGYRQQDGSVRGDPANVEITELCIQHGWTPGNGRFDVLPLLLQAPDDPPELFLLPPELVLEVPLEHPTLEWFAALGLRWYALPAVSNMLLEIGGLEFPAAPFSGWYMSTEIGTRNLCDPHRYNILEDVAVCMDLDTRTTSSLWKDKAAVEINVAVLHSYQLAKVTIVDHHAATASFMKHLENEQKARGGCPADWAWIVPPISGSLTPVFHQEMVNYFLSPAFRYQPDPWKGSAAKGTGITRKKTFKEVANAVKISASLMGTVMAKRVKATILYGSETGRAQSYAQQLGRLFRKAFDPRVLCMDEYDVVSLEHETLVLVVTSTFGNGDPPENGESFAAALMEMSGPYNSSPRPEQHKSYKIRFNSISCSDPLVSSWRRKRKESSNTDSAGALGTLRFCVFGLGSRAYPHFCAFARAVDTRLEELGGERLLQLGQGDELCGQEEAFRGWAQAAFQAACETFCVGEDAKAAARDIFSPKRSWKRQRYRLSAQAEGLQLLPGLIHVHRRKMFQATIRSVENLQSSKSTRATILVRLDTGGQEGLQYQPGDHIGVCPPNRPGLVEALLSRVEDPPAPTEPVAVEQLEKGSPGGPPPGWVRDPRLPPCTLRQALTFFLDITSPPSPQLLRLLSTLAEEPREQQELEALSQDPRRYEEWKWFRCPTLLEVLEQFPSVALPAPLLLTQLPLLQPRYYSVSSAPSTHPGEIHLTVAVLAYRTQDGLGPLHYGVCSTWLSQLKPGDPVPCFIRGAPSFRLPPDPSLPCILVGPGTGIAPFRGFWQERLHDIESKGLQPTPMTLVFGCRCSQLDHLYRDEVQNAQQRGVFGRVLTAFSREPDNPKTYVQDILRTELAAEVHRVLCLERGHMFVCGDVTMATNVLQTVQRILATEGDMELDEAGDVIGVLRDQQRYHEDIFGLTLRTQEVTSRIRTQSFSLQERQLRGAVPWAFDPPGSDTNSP
The description is as above. As to conditions: biotinylated d-peptide 0 to 5 μg, 1 hour room temperature. The protocol:
as §2

Entries after “also recorded” stand apart in the source; their conditions may differ.

Consider `CCCCCCCCCC(=O)O[C@@H]1[C@@H](C)[C@@]2(O)[C@@H](C=C(CO)C[C@@]3(O)C(=O)C(C)=C[C@@H]23)[C@@H]2C(C)(C)[C@]12OC(=O)CCCCCCCCC` [4αPDD, 4α-Phorbol-12,13 didecanoate], for which the “lung injury on 4αPDD exposure” value with TRPV4 was “leads to Ca^2+ entry-dependent acute lung injury, disruption of the lung barrier, and alveolar flooding”. For the same compound, the “mitochondrial membrane potential (TMRM)” value with PAEC [1] was “decrease in the mitochondrial membrane potential”. Also, the cellular peroxynitrite levels entry in the series on PAEC [2] was “increases”. The “mitochondrial ROS levels (MitoSOX red fluorescence)” value with PAEC [3] is given as “increases in mitochondrial ROS levels”.

For the compound HRKKRRQRRITRKKTFKEVA [d-peptide], the “binding to purified PKCα” value in the series with purified PKCα is “binds efficiently; also recorded: able to bind efficiently to purified PKCα”. For the same compound, in the series with purified eNOS protein, the “binding to eNOS” value is given as “but not to eNOS”.
